# US7932273B2, “3-[(2-{[4-(hexyloxycarbonylaminoiminomethyl) phenylamino]methyl}-1-methyl-1H-benzimidazol-5-carbonyl)pyridin-2-ylamino]propionic acid ethylester methansulfonate and its use as a medicament” (Boehringer Ingelheim International GmbH, priority 2003, dated 2011)
# Tests used:
# Assay type in all cases: physicochemical
# [1] = hygroscopicity of the crystalline modifications; details: in all three crystalline modifications (form I, form II, hemihydrate)
# [2] = amorphization during grinding and compression; details: all three crystalline modifications
# [3] = solubility in physiologically acceptable acid aqueous media; details: all three crystalline modifications
structure (smiles),measurement,setting,value
"CCCCCCOC(=O)NC(=N)c1ccc(NCc2nc3cc(C(=O)N(CCC(=O)OCC)c4ccccn4)ccc3n2C)cc1 [methanesulfonate, ethyl 3-[(2-{[4-(hexyloxycarbonylaminoimino-methyl)phenylamino]methyl}-1-methyl-1H-benzimidazole-5-carbonyl)pyridin-2-ylamino]propionate methanesulfonate]",hygroscopicity,[1],non-hygroscopic
same,amorphization,[2],low amorphization
same,solubility,[3],dissolves very easily
